One test deals with mosquito larvae. It is filed as in vivo. Conditions: liposomal essential oils in pond water.
The subject of a further test is Sinorhizobium meliloti. As to the kind of experiment: Microbial growth in 96-well plate, change in absorbance at 630 nm. It is filed as cell-based. Conditions: for overall potency order of essential oils: essential oils in de-oiled lecithin liposomes with triglyceride.

Each structure is given as a SMILES string.

In the case of `C=CCc1ccc(O)c(OC)c1` [eugenol], in the test with mosquito larvae, the larvicidal activity order entry is recorded as “thymol>cinnamaldehyde˜d-limonene>citronella˜eugenol>sandalwood oil˜coriander oil˜lavender oil”.
For the compound `O=CC=Cc1ccccc1` [cinnamaldehyde], in the test with Sinorhizobium meliloti, the “overall potency order of essential oils” value is “vetiver≈cinnamaldehyde>citronella≈sandalwood≈bayleaf≈patchouli≈rosewood>linalool≈d-limonene”. In the test on Sinorhizobium meliloti (liposomes with 0, 20 or 45 wt % triglyceride, particularly notable at 45%), the “activity as a single agent” value is “greater activity than citronella”. Moreover, in the test on mosquito larvae, the larvicidal activity order result is recorded as “thymol>cinnamaldehyde˜d-limonene>citronella˜eugenol>sandalwood oil˜coriander oil˜lavender oil”.
Turning to `COc1cc(/C=C/C(=O)CC(=O)/C=C/c2ccc(O)c(OC)c2)ccc1O` [diferuloylmethane, reference compound], the “antimicrobial activity of marker label” value in the test with Sinorhizobium meliloti (in liposome membrane) was “no antimicrobial activity”.
In the case of `Cc1ccc(C(C)C)c(O)c1` [thymol], the larvicidal activity order result in the test on mosquito larvae is “thymol>cinnamaldehyde˜d-limonene>citronella˜eugenol>sandalwood oil˜coriander oil˜lavender oil”.
Take `C=C(C)[C@H]1CC=C(C)CC1` [d-limonene]: the “overall potency order of essential oils” value in the test with Sinorhizobium meliloti is listed as “vetiver≈cinnamaldehyde>citronella≈sandalwood≈bayleaf≈patchouli≈rosewood>linalool≈d-limonene”. In the test on mosquito larvae, the larvicidal activity order result was “thymol>cinnamaldehyde˜d-limonene>citronella˜eugenol>sandalwood oil˜coriander oil˜lavender oil”.
